Patent US5432165A, “Methods for the treatment of infection caused by Hepatitis B virus (HBV)” (priority 1992, dated 1995)
Several values for one entry are separate records, joined by “and”; a condition that tells them apart may be missing. Equal entries are not always repeated. Entries after “also recorded” stand apart in the source; their conditions may differ.

Key:
[1] = Stability in an acid environment; assay type: physicochemical; details: such as is found in the human stomach
hepatitis B virus (HBV) = assay: Effect of oral FIAU on plasma HBV DNA and HBV DNA polymerase in HIV-infected patients with chronic hepatitis B; assay type: in vivo, human
Experimental: Effects on hepatitis were evaluated principally by changes in HBV DNA and viral DNA polymerase. Secondary markers were surface antigen and e antigen. The hepatitis tests were done at Baseline and on Days 3, 7, 14, 21 (7 days post-treatment) and 42 (28 days post-treatment).
Of the 13 "tolerance" patients, e.g., non-hepatitis patients, enrolled, all received the study drug and all are included in the safety analysis. […] They had received a single dose of the study drug, and has, therefore, been included in the safety analysis, but excluded from the efficacy analysis. All of the remaining hepatitis patients had sufficient baseline levels of HBV DNA (>20 pg/ml) and viral DNA polymerase (>300 cpm) in their serum to be useful for determining changes associated with FIAU dosing and all completed the full two weeks of dosing. Therefore, the remaining six hepatitis patients were included in both the safety and efficacy analyses.
The results of clinical investigations conducted at submilligram per kilogram daily doses of FIAU are presented below. […]

[2] = Peak and trough plasma levels of FIAU and FAU by HPLC; assay type: in vivo, human; details: for concentration at 24 h: FIAU trough plasma concentration
From the text: Additionally at Baseline, archive plasma samples were taken.

hepatitis B virus = assay: Oral FIAU in immune-competent patients with chronic hepatitis B: HBV DNA and HBV DNA polymerase; assay type: in vivo, human; details: for Number HBeAg-negative at latest follow-up: 6 patients with 1 month follow-up
Experimental: To assess the antiviral activity of FIAU against hepatitis B virus, up to 24 patients with chronic hepatitis B will be treated with oral FIAU in doses of 0.05, 0.10, 0.25 or 0.50 mg/kg-day in three divided doses daily for four weeks. Six patients, of which only three can be previous interferon failures, will be initially dosed at 0.10 mg/kg-day. Depending on tolerance and efficacy, the next six patients will be entered at 0.05 or 0.25 mg/kg-day.
This study is an open and uncontrolled evaluation of oral FIAU in the treatment of chronic hepatitis B. Up to four dose cohorts of six patients each will be sequentially studied starting at 0.10 mg/kg-day. Patients will take the medication three times per day for four weeks. Depending on efficacy and tolerance, the next dose cohort will be either 0.05 or 0.25 mg/kg-day.
Patients who meet the eligibility criteria will start on therapy, generally as outpatients one to two weeks after the in-hospital evaluation. Up to four doses will be sequentially evaluated. The initial six patients will receive 0.10 mg/kg-day for four weeks.
If tolerance is adequate at 0.10 mg/kg-day, six patients will receive 0.25 mg/kg-day for four weeks. The final six patients will receive 0.50 mg/kg-day for four weeks if needed for better efficacy and if tolerance has been adequate at the lower doses.
The FIAU will be administered by mouth in three equally divided doses daily. FIAU is provided as a 1 mg/ml syrup. Patients will be instructed on how to measure and self-administer the FIAU solution using oral dosing syringes. Dosing compliance will be monitored by measuring the residual FIAU solution returned at the weekly outpatient visit.
Activity of FIAU against hepatitis B virus will be assessed by monitoring levels of HBV DNA. An inhibition of HBV DNA activity of at least about 50% by the fourth week of treatment will be considered significant antiviral activity. The dose levels of FIAU will be compared based upon the degree of inhibition of serum levels of HBV DNA.

[3] = 0.1 mg/kg-day, two patients with HBV DNA under 1000 pg/ml
[4] = 0.5 mg/kg-day, four patients with entry HBV DNA <1000 pg/ml
[5] = human, in vivo, po, 1 mg/kg/day, 24 h
[6] = 0.1 mpk, Day 1 (initial level), individual patients 1A-6A
[7] = 0.1 mpk, Day 3, individual patients 1A-6A

## O=c1[nH]c(=O)n([C@@H]2O[C@H](CO)[C@@H](O)[C@@H]2F)cc1I [FIAU, 1-(2'-deoxy-2'-fluoro-β-D-arabinofuranosyl)-5-iodouracil]
[1]
  stability in an acid environment: stable in an acid environment
Hepatitis B virus (HBV); [3]
  average reduction of serum HBV DNA at Day 3 and One Week visits: 60%
  average reduction of serum HBV DNA by end of therapy at two weeks: 93%
  suppression of serum HBV DNA one week post-treatment: 86%
Hepatitis B virus (HBV); 0.1 mg/kg-day, two patients with baseline over 1000 pg/ml
  drop of HBV DNA by the end of therapy: ≤ 25%
Hepatitis B virus (HBV); [4]
  average HBV DNA level, percent of baseline, end of one week of dosing: less than 20%
  average HBV DNA level, percent of baseline, end of two week treatment: less than 10%
  drop of average serum HBV DNA after the first two days of therapy: 61%
  suppression of average HBV DNA one month post-treatment: over 75%
Hepatitis B virus (HBV); 0.5 mg/kg-day, single patient with baseline above 1000 pg/ml
  drop of serum HBV DNA in one week of therapy: 83%
Hepatitis B virus (HBV); 1.0 mg/kg-day
  effect on plasma HBV DNA and viral DNA polymerase levels: rapid, consistent, profound and prolonged effect
  surface antigen and e antigen status: remained positive in all patients to date, with one reported seroreversion of e antigen in Patient 401 approximately 23 weeks post-treatment
Hepatitis B virus (HBV); 1.0 mg/kg-day, five of the six patients
  continuing suppression of HBV DNA polymerase in serum: > 80%
Hepatitis B virus (HBV); 1.0 mg/kg-day, four weeks after therapy
  clearing of HBV DNA from the plasma: two of these became totally negative; also recorded: Two showed a complete clearing of HBV DNA from the plasma
Hepatitis B virus (HBV); 1.0 mg/kg-day, six patients
  average decrease of HBV DNA between Baseline (Day 1) and Day 3: over 70%
Hepatitis B virus (HBV); 1.0 mg/kg-day, two weeks, five of the six patients
  reduction in plasma HBV DNA by the end of therapy: more than 90%
[2]; 1.0 mg/kg-day, steady state, Days 3-14
  FIAU peak plasma concentration, range maximum: 1.66 µg/mL
[2]; FIAU 1.0 mg/kg-day, 14 days
  accumulation in the plasma with continued dosing: Neither FIAU nor FAU tended to accumulate; also recorded: Neither compound tended to accumulate
[2]; human, in vivo, po, 1 mg/kg/day
  FIAU trough plasma value, typical: under 0.2 μg/ml
[2]; [5]
  FIAU peak plasma concentration, mean: 0.58 µg/mL
  FIAU trough plasma concentration, mean: 0.05 µg/mL
[2]; human, in vivo, po, 1 mg/kg/day, FIAU peak plasma concentration, mean
  Cmax at 24 h: 580 ng/mL
[2]; human, in vivo, po, 1 mg/kg/day, FIAU peak plasma value at steady state, average
  Cmax at 2 h: ~1000 ng/mL
[2]; human, in vivo, po, 1 mg/kg/day, mean
  concentration at 24 h: 50 ng/mL
[2]; human, in vivo, po, 1 mg/kg/day, range maximum
  concentration at 24 h: 130 ng/mL
Hepatitis B virus; 0.05 mpk
  mean reduction of HBV DNA serum level from initial levels at Week 4: 30%
  Number HBeAg-negative at latest follow-up: 0
Hepatitis B virus; 0.05 mpk, Day 1 (initial level), individual patients 1C, 2C
  HBV DNA Polymerase (cpm): 1,318 cpm and 3,365 cpm
Hepatitis B virus; 0.05 mpk, Day 3, individual patients 1C, 2C
  HBV DNA Polymerase (cpm): 748 cpm and 1,509 cpm
Hepatitis B virus; 0.05 mpk, Day 8, individual patients 1C, 2C
  HBV DNA Polymerase (cpm): 348 cpm and 908 cpm
Hepatitis B virus; 0.05 mpk, n = 4
  Mean % change of HBV DNA at Week 4 of FIAU: -31%
Hepatitis B virus; 0.1 mpk
  mean reduction of HBV DNA serum level from initial levels at Week 4: 88%
  Number HBeAg-negative at latest follow-up: 0
Hepatitis B virus; [6]
  HBV DNA: 68.1 pg/mL and 306.2 pg/mL and 307.7 pg/mL and 18.1 pg/mL and 71.3 pg/mL and 172.6 pg/mL
  HBV DNA Polymerase (cpm): 1208 cpm and 3340 cpm and 3,000 cpm and 1,500 cpm and 1,174 cpm
Hepatitis B virus; [7]
  HBV DNA: 23.2 pg/mL and 110.6 pg/mL and 208.7 pg/mL and 12.3 pg/mL and 27.8 pg/mL and 75.6 pg/mL
  HBV DNA Polymerase (cpm): 348 cpm and 721 cpm and 1,550 cpm and 440 cpm and 251 cpm and 610 cpm
Hepatitis B virus; 0.1 mpk, Day 8, individual patients 1A-6A
  HBV DNA: 16.8 pg/mL and 100.1 pg/mL and 178.8 pg/mL and 8.8 pg/mL and 9.7 pg/mL and 27.6 pg/mL
